This passage reports inhibition and IC50 results from patent US20220289698A1, “INHIBITORS OF HUMAN ATGL” (Karl-Franzens-Universität Graz, priority 2019, published 2022).

Where two headings read alike, the source gives them in different places.

By inhibition is commonly meant the percentage by which the read-out fell short of the control. One may read the IC50 as the point on the concentration scale where inhibition reaches its midpoint.

For one test, the target named is T1, murine ATGL (Mus musculus, UniProt Q8BJ56).
T1 construct: made in house; host or cells: Expi cells (lysate)
T1 sequence (Q8BJ56 1-486): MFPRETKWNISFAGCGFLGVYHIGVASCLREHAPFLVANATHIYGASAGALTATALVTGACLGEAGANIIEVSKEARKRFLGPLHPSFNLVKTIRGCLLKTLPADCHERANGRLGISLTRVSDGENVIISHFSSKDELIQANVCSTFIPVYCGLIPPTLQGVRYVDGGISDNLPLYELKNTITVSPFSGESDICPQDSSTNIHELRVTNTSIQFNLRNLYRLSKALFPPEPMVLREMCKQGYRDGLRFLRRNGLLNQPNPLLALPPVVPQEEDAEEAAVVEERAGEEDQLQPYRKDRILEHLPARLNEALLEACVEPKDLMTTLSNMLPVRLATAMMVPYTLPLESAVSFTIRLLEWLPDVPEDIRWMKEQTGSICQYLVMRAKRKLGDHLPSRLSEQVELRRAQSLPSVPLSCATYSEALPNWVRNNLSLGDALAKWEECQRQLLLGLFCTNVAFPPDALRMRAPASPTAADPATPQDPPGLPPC
Description: TG hydrolase activity, Expi lysates expressing mouse ATGL + CGI-58, radiolabelled triolein. In kind it is biochemical. The method, then: (§1) Triglyceride (TG) hydrolase activity was measured as previously described (Schweiger M et al., Methods in Enzymology, 2014, 538:171-93). In brief, TG hydrolase activity was determined by adding recombinant purified CGI-58 to Expi cell lysates expressing human ATGL. For determination of cross-species reactivity Expi lysates expressing ATGL from different model organisms (e.g. mouse, rat, rhesus monkey, goat, etc.) were used. Samples were incubated with DMSO (carrier) or increasing concentrations of ATGL inhibitors dissolved in DMSO. TG substrate was prepared by emulsifying 330 μM radiolabelled triolein (40,000 c.p.m./nmol) and 45 μM phosphatidylcholine/phosphatidylinositol (3:1) in 100 mM potassium phosphate buffer (pH 7.0) by sonication and adjusting to 5% essentially FA-free BSA. TG substrate was added to the reaction mixture and incubated for 1 h at 37° C. in the water bath. The reaction was terminated by adding methanol/chloroform/heptane (10:9:7) and 0.1 M potassium carbonate with 0.1 M boric acid (pH 10.5). After centrifugation at 800 g for 15 min the radioactivity in the upper phase was determined by liquid scintillation counting and the rate of FA hydrolysis was calculated. IC50 values were determined as inhibitor concentration capable of inhibiting TG hydrolase activity by 50% as compared to DMSO control. Samples were measured as duplicates. The determination of IC50 values for human ATGL is illustrated in FIG. 1.
Lysates from Expi cells overexpressing ATGL from mouse (Mus musculus) were incubated with recombinant purified ATGL co-activator CGI-58 and ATGL inhibitors at 50 μM. Subsequently, substrate containing radiolabeled triolein was added and liberated FA were extracted and quantified by liquid scintillation. Inhibitors were dissolved in DMSO which was used as control. Samples were measured in triplicates.

In the next test the target is T2, human ATGL (Homo sapiens, UniProt Q96AD5).
T2 construct: made in house; host or cells: Expi cells (lysate, not purified)
T2 sequence (Q96AD5 1-504): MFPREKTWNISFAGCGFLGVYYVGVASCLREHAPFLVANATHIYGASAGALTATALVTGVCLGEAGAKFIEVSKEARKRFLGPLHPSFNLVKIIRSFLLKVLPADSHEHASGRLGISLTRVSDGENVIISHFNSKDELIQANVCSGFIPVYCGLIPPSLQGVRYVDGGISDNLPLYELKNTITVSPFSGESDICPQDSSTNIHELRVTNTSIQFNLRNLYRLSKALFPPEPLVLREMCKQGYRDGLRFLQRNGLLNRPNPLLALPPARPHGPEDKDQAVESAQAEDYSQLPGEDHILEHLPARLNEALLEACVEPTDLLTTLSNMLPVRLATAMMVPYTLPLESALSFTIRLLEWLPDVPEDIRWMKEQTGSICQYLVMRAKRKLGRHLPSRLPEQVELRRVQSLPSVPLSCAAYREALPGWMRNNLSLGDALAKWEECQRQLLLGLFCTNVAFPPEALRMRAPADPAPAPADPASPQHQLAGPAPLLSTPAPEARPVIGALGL
Description: TG hydrolase activity, Expi cell lysates expressing human ATGL + CGI-58, radiolabelled triolein. Type of test: biochemical. The conditions noted are these: Example 237; read-out: Inhibition of human ATGL − IC50. The method, then:
as §1

[1] abbreviates: 50 μM compound, Example 237, read-out: Inhibition of murine ATGL at 50 μM − mean [%].

Regarding `CCOC(=O)c1csc(-c2ccc(SC)cc2)n1` [Example 99, Ethyl 2-(4-(methylthio)phenyl)thiazole-4-carboxylate], on murine ATGL (setting [1]), the inhibition at 50 µM was determined as 37.3%. Moreover, the IC50 at human ATGL amounted to 12 µM.
On the same counts, the results for `CCOC(=O)c1csc(-c2ccc(SC(C)C)cc2)n1` [Example 100] are 0% and 20 µM.
Consider `CCOC(=O)c1csc(-c2ccc(OC)cc2)n1` [Example 102, Ethyl 2-(4-methoxyphenyl)thiazole-4-carboxylate], for which, at murine ATGL (setting [1]), the inhibition at 50 µM was 21.5%. Further, on human ATGL, the IC50 came out at 6 µM.
Consider `CCOC(=O)c1csc(-c2ccc(N(C)C)cc2)n1` [Example 103, Ethyl 2-(4-(dimethylamino)phenyl)thiazole-4-carboxylate], for which the inhibition at 50 µM at murine ATGL (setting [1]) is 33.9%. Moreover, the IC50 on human ATGL was 25 µM.
In the same order, the values of `CCOC(=O)c1csc(-c2ccc(OCC(C)C)cc2)n1` [Example 104, Ethyl 2-(4-isobutoxyphenyl)thiazole-4-carboxylate] are 0% and 12 µM.
Consider `CCOC(=O)c1csc(-c2ccc(OC(C)C)cc2)n1` [Example 106, Ethyl 2-(4-isopropoxyphenyl)thiazole-4-carboxylate], for which the inhibition at 50 µM on murine ATGL (setting [1]) is 21.6%. Further, the IC50 at human ATGL was 5 µM.
`CCOC(=O)c1csc(-c2ccc(OCC(F)(F)F)cc2)n1` [Example 108, Ethyl 2-(4-(2,2,2-trifluoroethoxy)phenyl)thiazole-4-carboxylate]: the inhibition at 50 µM on murine ATGL (setting [1]) came to 8%. Moreover, at human ATGL, the IC50 stood at 5 µM.
Take `CCCCOc1ccc(-c2nc(C(=O)OCC)cs2)cc1` [Example 109, Ethyl 2-(4-butoxyphenyl)thiazole-4-carboxylate]: the inhibition at 50 µM at murine ATGL (setting [1]) was determined as 0%. Besides, at human ATGL, the IC50 is 10 µM.
`CCCCCOc1ccc(-c2nc(C(=O)OCC)cs2)cc1` [Example 110, Ethyl 2-(4-(pentyloxy)phenyl)thiazole-4-carboxylate]: the inhibition at 50 µM at murine ATGL (setting [1]) was 0%. Besides, the IC50 on human ATGL was 25 µM.
For `CCCCCCOc1ccc(-c2nc(C(=O)OCC)cs2)cc1` [Example 111, Ethyl 2-(4-(hexyloxy)phenyl)thiazole-4-carboxylate], the inhibition at 50 µM at murine ATGL (setting [1]) is 0%. The IC50 on human ATGL worked out at 25 µM.
`CCOC(=O)c1csc(-c2ccc(OC(C)CC)cc2)n1` (stereo not shown) [Example 112, Ethyl 2-(4-(sec-butoxy)phenyl)thiazole-4-carboxylate]: on murine ATGL (setting [1]), the inhibition at 50 µM was determined as 1.3%. Further, the IC50 on human ATGL is 10 µM.
Regarding `C=CCOc1ccc(-c2nc(C(=O)OCC)cs2)cc1` [Example 113, Ethyl 2-(4-(allyloxy)phenyl)thiazole-4-carboxylate], the inhibition at 50 µM on murine ATGL (setting [1]) is 24.6%. The IC50 at human ATGL came out at 6 µM.
Regarding `CCOc1ccc(-c2nc(C(=O)OC(C)CC)cs2)cc1` (stereo not shown) [Example 114, sec-Butyl 2-(4-ethoxyphenyl)thiazole-4-carboxylate], the inhibition at 50 µM on murine ATGL (setting [1]) is 7%. Further, at human ATGL, the IC50 was 3 µM.
As to `CCOc1ccc(-c2nc(C(=O)OCC(F)(F)F)cs2)cc1` [Example 116, 2,2,2-Trifluoroethyl 2-(4-ethoxyphenyl)thiazole-4-carboxylate], the inhibition at 50 µM at murine ATGL (setting [1]) worked out at 0%. Also, the IC50 at human ATGL amounted to 12 µM.
As to `CCCC(C)OC(=O)c1csc(-c2ccc(OCC)cc2)n1` (stereo not shown) [Example 117, Pentan-2-yl 2-(4-ethoxyphenyl)thiazole-4-carboxylate], at murine ATGL (setting [1]), the inhibition at 50 µM was found to be 7.4%. Also, the IC50 at human ATGL is 3 µM.
With `CCOc1ccc(-c2nc(C(=O)OC(C)(C)CC)cs2)cc1` [Example 118, tert-Pentyl 2-(4-ethoxyphenyl)thiazole-4-carboxylate], on murine ATGL (setting [1]), the inhibition at 50 µM is 0%. At human ATGL, the IC50 turned out to be 25 µM.
In the same order, the values of `C/C=C/COC(=O)c1csc(-c2ccc(OCC)cc2)n1` [Example 121, (E)-but-2-en-1-yl 2-(4-ethoxyphenyl)thiazole-4-carboxylate] are 41.2% and 12 µM.
On the same counts, the results for `CCOc1ccc(-c2nc(C(=O)OC)cs2)cc1` [Example 122, Methyl 2-(4-ethoxyphenyl) thiazole-4-carboxylate] are 2.1% and 8 µM.
`CCOc1ccc(-c2nc(C(=O)OC(C)C)cs2)cc1` [Example 123, Isopropyl 2-(4-ethoxyphenyl) thiazole-4-carboxylate]: the inhibition at 50 µM on murine ATGL (setting [1]) was 10.6%; on murine ATGL (50 μM, overview table, read-out: mouse ATGL inhibition [% inhibition at 50 μM]), 20%. Besides, the IC50 on human ATGL stood at 3 µM.
Consider `CCOC(=O)c1nc(-c2ccc(OCC)cc2)sc1C` [Example 124, Ethyl 2-(4-ethoxyphenyl)-5-methylthiazole-4-carboxylate], for which the inhibition at 50 µM at murine ATGL (setting [1]) was 33.7%. Moreover, on human ATGL, the IC50 is 17 µM.
For the compound `CCOC(=O)c1nc(-c2ccc(OCC)cc2)sc1Cl` [Example 125, Ethyl 5-chloro-2-(4-ethoxyphenyl)thiazole-4-carboxylate], the inhibition at 50 µM at murine ATGL (setting [1]) came out at 11.1%. Further, on human ATGL, the IC50 amounted to 25 µM.
With `CCOC(=O)c1nc(-c2ccc(OCC)cc2)sc1OC` [Example 126, Ethyl 2-(4-ethoxyphenyl)-5-methoxythiazole-4-carboxylate], the inhibition at 50 µM on murine ATGL (setting [1]) turned out to be 2.2%. In addition, the IC50 at human ATGL is 5 µM.
As to `CCOc1ccc(-c2nc(C(=O)OC3CCCC3)cs2)cc1` [Example 127, Cyclopentyl 2-(4-ethoxyphenyl)thiazole-4-carboxylate], the inhibition at 50 µM on murine ATGL (setting [1]) worked out at 0%. For the same compound, the IC50 at human ATGL turned out to be 5 µM.
Take `CCOc1ccc(-c2nc(C(=O)OC3CCC3)cs2)cc1` [Example 129, Cyclobutyl 2-(4-ethoxyphenyl)thiazole-4-carboxylate]: the inhibition at 50 µM on murine ATGL (setting [1]) turned out to be 5.1%. For the same compound, the IC50 on human ATGL amounted to 6 µM.
On the same counts, the results for `CCOc1ccc(-c2nc(C(=O)OC3CCOC3)cs2)cc1` (stereo not shown) [Example 130, Tetrahydrofuran-3-yl 2-(4-ethoxyphenyl)thiazole-4-carboxylate] are 13.9% and 3 µM.
Regarding `CCOc1ccc(-c2nc(C(=O)OC3CCCCC3)cs2)cc1` [Example 133, Cyclohexyl 2-(4-ethoxyphenyl)thiazole-4-carboxylate], the inhibition at 50 µM at murine ATGL (setting [1]) came to 0%. The IC50 at human ATGL stood at 25 µM.
On the same counts, the results for `CCOc1ccc(-c2nc(C(=O)OC(CF)CF)cs2)cc1` [Example 135, 1,3-Difluoropropan-2-yl 2-(4-ethoxyphenyl)thiazole-4-carboxylate] are 5.8% and 3 µM.
With `CCOc1ccc(-c2nc(C(=O)OCC3CC3)cs2)cc1` [Example 136, Cyclopropylmethyl 2-(4-ethoxyphenyl)thiazole-4-carboxylate], at murine ATGL (setting [1]), the inhibition at 50 µM stood at 9.8%. In addition, the IC50 on human ATGL was found to be 20 µM.
On the same counts, the results for `CCOc1ccc(-c2nc(C(=O)O[C@H]3CCC[C@H]3C)cs2)cc1` [Example 139, (1S,2R)-2-Methylcyclopentyl 2-(4-ethoxyphenyl)thiazole-4-carboxylate] are 0% and 15 µM.
In the same order, the values of `CCOc1ccc(-c2nc(C(=O)OCC=C(C)C)cs2)cc1` [Example 143, 3-Methylbut-2-en-1-yl 2-(4-ethoxyphenyl)thiazole-4-carboxylate] are 16.8% and 20 µM.
